In US10611740B2, “Aryl dihydro-2H-benzo[b][1,4]oxazine sulfonamide and related compounds for use as agonists of RORγ and the treatment of disease” (Lycera Corporation, priority 2015, dated 2020):

Biological target: T1, RORγ-LBD (Homo sapiens, UniProt P51449)
T1 construct: made in house; host or cells: SF9 cells (baculovirus)
T1 sequence (P51449 269-508 limits assumed): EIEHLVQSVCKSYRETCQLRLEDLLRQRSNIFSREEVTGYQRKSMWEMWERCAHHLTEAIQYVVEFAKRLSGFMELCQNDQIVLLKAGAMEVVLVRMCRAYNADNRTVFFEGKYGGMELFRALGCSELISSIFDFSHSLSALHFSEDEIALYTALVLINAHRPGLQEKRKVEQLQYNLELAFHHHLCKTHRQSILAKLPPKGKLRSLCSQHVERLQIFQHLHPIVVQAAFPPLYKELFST
Test: RORγ-Ligand Binding Domain (LBD) TR-FRET Assay;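 for TR-FRET Assay Max Response: 665/615 nm ratio relative to signal without ursolic acid or compound set at 100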
Format: biochemical
Procedure: Assay procedures and results are described below.
HIS-tagged RORγ-LBD protein was expressed in SF9 cells using a baculovirus expression system. The lysate was diluted in assay buffer (50 mM Tris pH 7.0, 50 mM KCl, 1 mM EDTA, 0.1 mM DTT, 0.01% BSA) to obtain RORγ-LBD final concentration of ˜3 nM in a 384-well assay plate (need to titrate for each batch of protein).
A stock of biotinylated-LXXLL peptide from coactivator SRC1 (Biotin-[…]) was prepared in assay buffer and added to each well (200 nM final concentration). […] RORγ antagonist ursolic acid was also included at a final concentration of 2 μM. Compounds were diluted in DMSO and further diluted in assay buffer with a final DMSO concentration at 1%.

Compound	EC50	TR-FRET Assay Max Response
O=C(O)CC[C@H]1CN(S(=O)(=O)c2cccc(C(F)(F)F)c2)c2cc(-c3ccc(Cl)cc3)ccc2O1 [Compound 2B, (S)-3-(6-(4-chlorophenyl)-4-((3-(trifluoromethyl)phenyl)-sulfonyl)-3,4-dihydro-2H-benzo[b][1,4]oxazin-2-yl)propanoic acid]	< 500 nM	** (The symbol “**” indicates a value in the range of greater than 90 to 150)
O=C(O)CC[C@@H]1CN(S(=O)(=O)c2cccc(C(F)(F)F)c2)c2cc(-c3cc(F)ccc3F)ccc2O1 [Compound 2BP, (R)-3-(6-(2,5-difluorophenyl)-4-((3-(trifluoromethyl)phenyl)-sulfonyl)-3,4-dihydro-2H-benzo[b][1,4]oxazin-2-yl)propanoic acid]	< 500 nM	*** (The symbol “***” indicates a value in the range of greater than 150 to 200)
O=C(O)CC[C@H]1CN(S(=O)(=O)c2cccc(C(F)(F)F)c2)c2cc(-c3ccc(F)cc3F)ccc2O1 [Compound 2D, (S)-3-(6-(2,4-difluorophenyl)-4-((3-(trifluoromethyl)phenyl)-sulfonyl)-3,4-dihydro-2H-benzo[b][1,4]oxazin-2-yl)propanoic acid]	< 500 nM	** (The symbol “**” indicates a value in the range of greater than 90 to 150)
O=C(O)CC[C@H]1CN(S(=O)(=O)c2cccc(C(F)(F)F)c2)c2cc(-c3ccc(F)c(F)c3)ccc2O1 [Compound 2F, (S)-3-(6-(3,4-difluorophenyl)-4-((3-(trifluoromethyl)phenyl)-sulfonyl)-3,4-dihydro-2H-benzo[b][1,4]oxazin-2-yl)propanoic acid]	< 500 nM	** (The symbol “**” indicates a value in the range of greater than 90 to 150)
O=C(O)CC[C@H]1CN(S(=O)(=O)c2cccc(C(F)(F)F)c2)c2cc(-c3cccc(-c4ccccc4)n3)ccc2O1 [Compound 4AI, (S)-3-(6-(6-phenylpyridin-2-yl)-4-((3-(trifluoromethyl)-phenyl)sulfonyl)-3,4-dihydro-2H-benzo[b][1,4]oxazin-2-yl)propanoic acid]	< 500 nM	** (The symbol “**” indicates a value in the range of greater than 90 to 150)
CN(C)c1cc(C(F)(F)F)cc(-c2ccc3c(c2)N(S(=O)(=O)c2cccc(C(F)(F)F)c2)C[C@H](CCC(=O)O)O3)n1 [Compound 4AT, (S)-3-(6-(6-(dimethylamino)-4-(trifluoromethyl)pyridin-2-yl)-4-((3-(trifluoromethyl)phenyl)-sulfonyl)-3,4-dihydro-2H-benzo[b][1,4]oxazin-2-yl)propanoic acid]	500 to 5000 nM	*** (The symbol “***” indicates a value in the range of greater than 150 to 200)
CN(C)c1nccc(-c2ccc3c(c2)N(S(=O)(=O)c2cccc(C(F)(F)F)c2)C[C@H](CCC(=O)O)O3)n1 [Compound 4AV, (S)-3-(6-(2-(dimethylamino)-pyrimidin-4-yl)-4-((3-(trifluoromethyl)phenyl)-sulfonyl)-3,4-dihydro-2H-benzo[b][1,4]oxazin-2-yl)propanoic acid]	500 to 5000 nM	*** (The symbol “***” indicates a value in the range of greater than 150 to 200)
O=C(O)CC[C@H]1CN(S(=O)(=O)c2cccc(C(F)(F)F)c2)c2cc(-c3ccnc(Cl)n3)ccc2O1 [Compound 4AX, (S)-3-(6-(2-chloropyrimidin-4-yl)-4-((3-(trifluoromethyl)-phenyl)sulfonyl)-3,4-dihydro-2H-benzo[b][1,4]oxazin-2-yl)propanoic acid]	500 to 5000 nM	** (The symbol “**” indicates a value in the range of greater than 90 to 150)
O=C(O)CC[C@H]1CN(S(=O)(=O)c2cccc(C(F)(F)F)c2)c2cc(-c3cccc(C(F)(F)F)n3)c(Cl)cc2O1 [Compound 22F, (S)-3-(7-chloro-4-((3-(trifluoromethyl)phenyl)sulfonyl)-6-(6-(trifluoromethyl)pyridin-2-yl)-3,4-dihydro-2H-benzo[b][1,4]-oxazin-2-yl)propanoic acid]	> 10000 nM	–
O=C(O)CC[C@H]1CN(S(=O)(=O)c2cccc(C(F)(F)F)c2)c2cc(-c3cc(F)cc(OC(F)F)c3)cc(F)c2O1 [Compound 22M, (S)-3-(6-(3-(difluoromethoxy)-5-fluorophenyl)-8-fluoro-4-((3-(trifluoromethyl)phenyl)sulfonyl)-3,4-dihydro-2H-benzo[b][1,4]-oxazin-2-yl)propanoic acid]	< 500 nM	*** (The symbol “***” indicates a value in the range of greater than 150 to 200)
O=C(O)CC[C@H]1CN(S(=O)(=O)c2cccc(C(F)(F)F)c2)c2cc(-c3cc(F)cc(OC(F)F)c3)c(Cl)cc2O1 [Compound 22N, (S)-3-(7-chloro-6-(3-(difluoro-methoxy)-5-fluorophenyl)-4-((3-(trifluoromethyl)phenyl)sulfonyl)-3,4-dihydro-2H-benzo[b][1,4]-oxazin-2-yl)propanoic acid]	< 500 nM	–
O=C(O)CNC(=O)CC[C@H]1CN(S(=O)(=O)c2cccc(C(F)(F)F)c2)c2cc(-c3cccc(F)c3F)ccc2O1 [Compound 23O, (S)-(3-(6-(2,3-difluorophenyl)-4-((3-(trifluoromethyl)-phenyl)sulfonyl)-3,4-dihydro-2H-benzo[b][1,4]oxazin-2-yl)propanoyl)glycine]	< 500 nM	**** (The symbol “****” indicates a value greater than 200)
O=C(NCC[C@H]1CN(S(=O)(=O)c2cccc(C(F)(F)F)c2)c2cc(-c3cc(F)ccc3F)ccc2O1)NC[C@H](O)C(=O)O [Compound 23Z, (S)-3-(3-(2-((S)-6-(2,5-difluorophenyl)-4-((3-(trifluoro-methyl)phenyl)sulfonyl)-3,4-dihydro-2H-benzo[b][1,4]oxazin-2-yl)ethyl)ureido)-2-hydroxypropanoic acid]	< 500 nM	**** (The symbol “****” indicates a value greater than 200)
Cc1coc(-c2ccc3c(c2)N(S(=O)(=O)c2cccc(C(F)(F)F)c2)C[C@H](CCC(=O)O)O3)n1 [Compound 25, (S)-3-(6-(4-methyloxazol-2-yl)-4-((3-(trifluoromethyl)phenyl)sulfonyl)-3,4-dihydro-2H-benzo[b][1,4]oxazin-2-yl)propanoic acid]	500 to 5000 nM	** (The symbol “**” indicates a value in the range of greater than 90 to 150)
CC(C)(C(=O)NC[C@H]1CN(S(=O)(=O)c2cccc(C(F)(F)F)c2)c2cc(-c3cccc(F)c3Cl)ccc2O1)C(F)(F)F [Compound 30BJ, (S)-N-((6-(2-chloro-3-fluoro-phenyl)-4-((3-(trifluoromethyl)-phenyl)sulfonyl)-3,4-dihydro-2H-benzo[b][1,4]oxazin-2-yl)methyl)-3,3,3-trifluoro-2,2-dimethylpropanamide]	500 to 5000 nM	*** (The symbol “***” indicates a value in the range of greater than 150 to 200)
NS(=O)(=O)CCC(=O)NC[C@H]1CN(S(=O)(=O)c2cccc(C(F)(F)F)c2)c2cc(-c3cccc(F)c3Cl)ccc2O1 [Compound 30BK, (S)-N-((6-(2-chloro-3-fluoro-phenyl)-4-((3-(trifluoromethyl)-phenyl)sulfonyl)-3,4-dihydro-2H-benzo[b][1,4]oxazin-2-yl)methyl)-3-sulfamoylpropanamide]	< 500 nM	*** (The symbol “***” indicates a value in the range of greater than 150 to 200)
N#CC1(C(=O)NC[C@H]2CN(S(=O)(=O)c3cccc(C(F)(F)F)c3)c3cc(-c4cccc(F)c4Cl)ccc3O2)CC1 [Compound 30BL, (S)-N-((6-(2-chloro-3-fluoro-phenyl)-4-((3-(trifluoromethyl)-phenyl)sulfonyl)-3,4-dihydro-2H-benzo[b][1,4]oxazin-2-yl)methyl)-1-cyanocyclo-propane-1-carboxamide]	< 500 nM	*** (The symbol “***” indicates a value in the range of greater than 150 to 200)
O=C(NC[C@H]1CN(S(=O)(=O)c2cccc(C(F)(F)F)c2)c2cc(-c3cccc(F)c3Cl)ccc2O1)C1(F)CC1 [Compound 30BM, (S)-N-((6-(2-chloro-3-fluoro-phenyl)-4-((3-(trifluoromethyl)-phenyl)sulfonyl)-3,4-dihydro-2H-benzo[b][1,4]oxazin-2-yl)methyl)-1-fluorocyclo-propane-1-carboxamide]	< 500 nM	*** (The symbol “***” indicates a value in the range of greater than 150 to 200)
CC(C)(C(=O)NC[C@H]1CN(S(=O)(=O)c2cccc(C(F)(F)F)c2)c2cc(-c3cc(F)cc(OC(F)F)c3)ccc2O1)C(F)(F)F [Compound 30CY, (S)-N-((6-(3-(difluoromethoxy)-5-fluorophenyl)-4-((3-(trifluoro-methyl)phenyl)sulfonyl)-3,4-dihydro-2H-benzo[b][1,4]-oxazin-2-yl)methyl)-3,3,3-trifluoro-2,2-dimethyl-propanamide]	< 500 nM	** (The symbol “**” indicates a value in the range of greater than 90 to 150)
